Results taken from ChEMBL document CHEMBL1134188, “Evidence for gliotoxin-glutathione conjugate adducts” (Bioorg Med Chem Lett, 2001).

Test: The equilibrium constant pair at a pH of 7.0 and temperature of 25 degree Centigrade
Details: pH 7

CN1C(=O)[C@]23CC4=CC=C[C@H](O)[C@H]4N2C(=O)[C@@]1(CO)SS3.N[C@@H](CS)C(=O)O [GLIOTOXIN/CYSTEINE]
Keq: 400 M⁻¹
